The nature of data set [1]: Safety and tolerability, PSG study. It counts as in vivo, human. From the text:
In the ascending single-dose study, 52 AEs were considered to be related to the study drug, the most common of which was somnolence/sleepiness, drowsiness, and tiredness (15 of 16 subjects dosed with MK-1064), consistent with the intended pharmacological activity. […] In the PSG study, 13 of the 20 subjects enrolled reported ≥1 clinical AE. Of 24 clinical AEs reported, 18 were considered to be related to study treatment, all of which were mild or moderate in intensity. One report of transient sleep paralysis following MK-1064 250 mg was noted, while the most common MK-1064-related AEs were headache (3 subjects), nightmares (2 subjects) and dizziness (1 subject) (Supplementary Table 2).
(§1) Twenty healthy male subjects between the ages of 18 and 45 years were recruited to a double-blind, randomized, 4-period, crossover study to evaluate the effects of single doses of MK-1064. Subjects were without a history of physical or mental illnesses, had no history of sleep abnormalities, and were not regularly taking medication. Subject inclusion required a sleep score ≤6 on the Pittsburgh Sleep Quality Index at the time of screening, and qualified subjects underwent a PSG screening prior to randomization to exclude those with latent sleep disturbances. In each of the 4 treatment periods, subjects were randomized to receive single doses of MK-1064 (50, 120, or 250 mg) or matching placebo according to a balanced crossover design (see Fig. 5). Briefly, 20 subjects were randomized to 4 panels (n = 5 each). Each panel then received each of the four treatments (placebo, 50, 120, 250 mg MK-1064) in 4 different study periods where each period allocated the 4 different treatments to the 4 different subject panels. Progression through each period rotated the 4 different treatments among the subject panels such that each panel ultimately received all 4 treatments. In all 4 study periods, subjects were admitted for a pre-dose habituation night. On the following treatment night, subjects were administered a single dose of study medication in a blinded manner approximately 1 hour before their habitual bedtime. Study medication was administered following a ≥4-hour fast. Dosing in different treatment periods was separated by a washout of at least 7 days for each subject. PSG recording commenced at 1 hour post-dose and continued during undisturbed sleep for 8 hours overnight. Visual scoring of each 30-sec epoch of PSG recording to wake or one of four sleep states (S1, S2, SWS, collectively referred to as NREM, and REM) was performed according to standard and established Rechtschaffen and Kales criteria. Obtained scores were then used to calculate efficacy assessment measures including latency to persistent sleep (LPS) (min), wake after sleep onset (WASO) (min), sleep efficiency (SE) (%), and total sleep time (TST) (min). LPS is the time from lights off to the first epoch of 20 consecutive epochs of non-wake stage; WASO is the time in wake stage between the onset of persistent sleep and the time of lights on; and SE is the proportion of time between lights off and lights on that was spent in sleep. In addition to efficacy parameters, latency to REM (LREM) (min), equal to the time from lights off to the first epoch of REM, and the proportion (%) of TST spent in NREM and REM were calculated. Estimation of the effects of treatment on PSG endpoints relative to placebo, including the calculation of confidence intervals and p-values were done using a mixed-effect statistical model typical for crossover studies. Specifically, logarithm of an analyzed endpoint represented the response variable, and treatment dose, treatment period, and carryover effect were fixed-effect explanatory variables. Subject effect was the random effect with the within-subject covariance assumed to be of the unstructured type. […] SAS/STAT® Version 9.3 software (SAS Institute, Cary NC) was used in the analysis.

The next data set concerns cataplexy. The experiment in a line: Food-elicited cataplexy test (FECT). The data set is classed as in vivo, dog. As to conditions: dogs, 20 mg/kg, 1 hour after administration. The procedure: A standard measure for quantifying narcolepsy with cataplexy in dogs is the food-elicited cataplexy test (FECT).
The FECT was performed essentially as described previously. After a 2-day vehicle run-in period, female dogs (n = 8; Marshall Farms) were treated with MK-1064 (20 mg/kg) or vehicle in a 1-day vehicle x 2-day drug crossover design. Daytime FECTs[32][43][44] with simultaneous video and electrocorticography (ECoG), electromyography (EMG), and electrooculography (EOG) recordings were conducted 1 hour post-dose. Following release into the test room, dogs were remotely monitored while consuming 10 evenly spaced, approximately 1-inch[2] balls of wet dog food (Pedigree® chunk beef). Video and ECoG/EOG/EMG recordings were evaluated for any signs of cataplexy (e.g., collapse, EMG attenuation, sudden-onset REM sleep; see Kushida et al.[43]) and the time needed to consume all 10 balls of food.

A further data set has as its system sleep. The experiment in a line: Polysomnography in healthy male subjects. It counts as in vivo, human. On the procedure:
In the PSG study, subjects underwent 8-hour PSG recording periods beginning 1 hour after nighttime administration of MK-1064 (50, 120 and 250 mg) or placebo. […] Dose-dependence of the effects of MK-1064, while not evaluated statistically, was most pronounced with regard to LPS, LREM and REM sleep, and to a lesser extent, TST and WASO sleep (Fig. 7b).
Figure 7 MK-1064 promotes sleep in healthy subjects. MK-1064 (50, 120 and 250 mg) or placebo were administered 1 hour prior to the normal resting phase in healthy subjects (N = 20), and PSG effects were monitored during the normal resting phase.
as §1

Another data set in a line: Dog plasma free fraction. It counts as in vitro ADME.
The mark [2] stands for this setting: healthy subjects, two highest doses (120, 250 mg).

“Also recorded” adds a separate entry of the source.

From paper PMC4891657, “Orexin 2 Receptor Antagonism is Sufficient to Promote NREM and REM Sleep from Mouse to Man” (Scientific Reports, 2016) come the findings set out here.

Turning to `COc1ccc(CNC(=O)c2cc(-c3cncc(Cl)c3)cnc2-c2ccccn2)nc1OC` [MK-1064, 5″-chloro-N-[(5,6-dimethoxypyridin-2-yl)methyl]-2,2′:5′, 3″-terpyridine-3′-carbo xamide], in data set [1], the “MK-1064-related AE dizziness” value is recorded as 1 subject, the “MK-1064-related AE headache” value is 3 subjects, the “MK-1064-related AE nightmares” value was determined as 2 subjects and the “clinical AEs reported” value came out at 24. Also, in data set [1] (250 mg), the “reports of transient sleep paralysis” value was “One”. For the same compound, in data set [1] (20 subjects enrolled, crossover 50, 120, 250 mg and placebo), the “subjects reporting ≥1 clinical AE” value was found to be 13 subjects. Moreover, the “clinical AEs considered to be related to study treatment” value in data set [1] (all mild or moderate) turned out to be 18. Also, the “cataplectic episodes in FECT” value in the data set with cataplexy is recorded as “no cataplectic episodes; also recorded: cataplexy was not observed”. Further, in the data set on cataplexy (not significantly different from vehicle), the “mean time to complete the FECT” value was determined as 37.8 s. Further, the “time spent in Stage 2” value with sleep (healthy subjects, 120 mg) was “significant increase”. In addition, the “LPS as fraction of placebo response” value with sleep (healthy subjects, 50, 120 and 250 mg (all doses)) was “significant reductions”. Moreover, in the data set with sleep (setting [2]), the “WASO as fraction of placebo response” value was “significant reductions” and the “reduction in LREM versus placebo” value was “statistically significant”. In addition, in the data set on sleep (healthy subjects, two lower doses (50, 120 mg)), the NREM sleep entry is listed as “increases in NREM sleep”. Further, the “time spent in Stage 1 and SWS” value with sleep (healthy subjects, vs placebo) is “not significantly different from placebo”. Moreover, the free fraction (fraction unbound) in “Dog plasma free fraction” worked out at 0.286.

For orientation: fraction unbound means the share of the substance not bound to proteins or other matrix. Low readings indicate extensive binding, high ones weak binding.
